Consider 13 compounds from PMC10318132, “Synthesis and activity study of novel N,N-diphenylurea derivatives as IDO1 inhibitors” (Frontiers in Chemistry, 2023).

Each structure is given as a SMILES string. Some results are limits rather than exact numbers.

Assay [1] deals with T1, IDO1 (Homo sapiens, UniProt P14902).
T1 construct: host or cells: HeLa cells stimulated with 100 ng/mL human IFN-γ
The experiment in a line: Hela cell-based functional assay of IDO1 inhibition (kynurenine read at 480 nm). To be noted: Hela cells, 100 ng/mL human IFN-γ, 18 h; averages ±SD of two parallel experiments. Here is the method:
Based on a comprehensive review of the literature, we employed a Hela cell-based functional assay to investigate the IDO1 inhibition activities of the designed compounds.
To assess the inhibitory effect of the designed compounds against IDO1, Hela cells were seeded at 50,000–60,000 cells per well in 100 μL of complete Dulbecco’s modified eagle medium growth medium in a 96-well plate and incubated for 12–18 h. On the second day, diluted inhibitor at a final concentration of 100 ng/mL human IFN-γ was added (100 μL per well) and incubated at 37°C with 5% CO2 for 18 h. On the third day, 140 μL of medium was transferred into a new 96-well plate, and the protein was precipitated with 10 μL of 6.1 N trichloroacetic acid (CCl3COOH) at 50°C for 30 min. The plate was then centrifuged at 2,500 rpm for 10 min, and 100 μL of supernatant was transferred to another 96-well plate and mixed with 100 μL of 2% (w/v) p-dimethylaminobenzaldehyde in CH3COOH. The plate was incubated at 25°C for 10 min, and the yellow color derived from kynurenine was measured at 480 nm using a microplate reader (PE, United States). Inhibition curves with IC50 values were generated using Prism 6.0.

The test system of assay [2] is melanin-concentrating hormone. Also on record: method as in McBriar et al., 2006. To be noted: melanin-concentrating hormone antagonist; ref McBriar et al., 2006; cited from earlier work.
Assay [3] deals with Staphylococcus aureus. Also on record: method as in Babu et al., 2015. To be noted: ref Babu et al., 2015; cited from earlier work.
For assay [4], the system named is laryngeal squamous carcinoma cells. Also on record: method as in Khanet al. To be noted: ref Khanet al.; cited from earlier work.
Assay [5] concerns pancreatic cancer cells. Set-up: method as in Khanet al. To be noted: ref Khanet al.; cited from earlier work.
In assay [6] the test system is HIV-1 protease. Set-up: method as in The Lipton laboratory. To be noted: ref The Lipton laboratory; cited from earlier work.

The term IC50 denotes the concentration at which inhibition is half-maximal. Low values mean greater potency in that assay, high ones weaker potency in that assay.

T1 sequence (P14902 whole entry): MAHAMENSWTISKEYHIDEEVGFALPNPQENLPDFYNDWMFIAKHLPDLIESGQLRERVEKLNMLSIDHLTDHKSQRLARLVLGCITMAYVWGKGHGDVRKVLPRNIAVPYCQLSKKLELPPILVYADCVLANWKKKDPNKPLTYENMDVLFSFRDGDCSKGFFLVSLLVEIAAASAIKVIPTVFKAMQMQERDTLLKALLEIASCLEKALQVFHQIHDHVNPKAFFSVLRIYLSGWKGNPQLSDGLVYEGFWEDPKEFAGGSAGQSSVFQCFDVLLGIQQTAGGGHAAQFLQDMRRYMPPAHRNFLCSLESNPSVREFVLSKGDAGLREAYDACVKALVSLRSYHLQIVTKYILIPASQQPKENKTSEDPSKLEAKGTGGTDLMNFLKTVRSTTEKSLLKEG

Consider `Cc1ccc(-c2csc3nnc(SCC(=O)Nc4ccc5c(c4)OCO5)n23)cc1` [Amg-1, reference compound], for which, in assay [1], the midpoint of inhibition, the IC50, lay at 3.97 µM.

`COc1ccc(NC(=O)NCc2cn(Cc3ccccc3Br)nn2)cc1` [Compound 3a, 1-((1-(2-bromobenzyl) -1H-1,2,3-triazol-4-yl)methyl) -3-(4-methoxyphenyl) urea] showed an IC50 in assay [1] of over 20 µM.

Compound `O=C(NCc1cn(Cc2ccccc2Br)nn1)Nc1ccc(Br)cc1` [Compound 3d, 1-((1-(2-bromobenzyl) -1H-1,2,3-triazol-4-yl)methyl) -3-(4-bromophenyl) urea] displayed an IC50 in assay [1] of over 20 µM.

As for `O=C(NCc1cn(Cc2cccc(Br)c2)nn1)Nc1ccc(Br)cc1` [Compound 3e, 1-((1-(3-bromobenzyl) -1H-1,2,3-triazol-4-yl)methyl) -3-(4-bromophenyl) urea], in assay [1], the IC50 is over 20 µM.

`COc1ccc(NC(=O)NC(C)(C)c2cn(Cc3ccccc3Br)nn2)cc1` [Compound 3f, 1-(2-(1-(2-bromobenzyl)-1H-1,2,3-triazol-4-yl)propan-2-yl)-3-(4-methoxyphenyl)urea] gave a concentration for half-maximal inhibition (IC50) in assay [1] of 17.9 ± 3.14 µM.

With `COc1ccc(NC(=O)NC(C)(C)c2cn(Cc3cccc(Br)c3)nn2)cc1` [Compound 3g, 1-(2-(1-(3-bromobenzyl)-1H-1,2,3-triazol-4-yl)propan-2-yl)-3-(4-methoxyphenyl)urea], it took 1.73 ± 0.97 µM to reach half-maximal inhibition in assay [1] (IC50).

For `COc1ccc(NC(=O)NC(C)(C)c2cn(Cc3cccc(OC)c3)nn2)cc1` [Compound 3h, 1-(2-(1-(3-methoxybenzyl)-1H-1,2,3-triazol-4-yl)propan-2-yl)-3-(4-methoxyphenyl)urea], inhibition in assay [1] was half-maximal at 5.82 ± 2.65 µM (IC50).

`CC(C)(NC(=O)Nc1ccc(Br)cc1)c1cn(Cc2ccccc2Br)nn1` [Compound 3i, 1-(2-(1-(2-bromobenzyl)-1H-1,2,3-triazol-4-yl)propan-2-yl)-3-(4-bromophenyl)urea]: the concentration for half-maximal inhibition (IC50) in assay [1] is over 20 µM.

For the compound `CC(C)(NC(=O)Nc1ccc(Br)cc1)c1cn(Cc2cccc(Br)c2)nn1` [Compound 3j, 1-(2-(1-(3-bromobenzyl)-1H-1,2,3-triazol-4-yl)propan-2-yl)-3-(4-bromophenyl)urea], the IC50 in assay [1] is over 20 µM.

Consider `CN1CCN(CCCN(C(=O)Nc2ccc(F)c(C(F)(F)F)c2)[C@@H]2CC[C@]3(c4ccc(C#N)cc4)C[C@H]23)CC1` [Compound 7], for which, in assay [2], the “effect on body weight” value is reported as “effective in reducing body weight”.

On to `O=C(Nc1ccc(F)c(C(F)(F)F)c1)N1CCN(c2ncc3cc(-c4cccnc4F)ccc3n2)CC1` [Compound 8], for which the “inhibitory effect on the proliferation of Staphylococcus aureus” value in assay [3] was “excellent inhibitory effect”.

As for `CNc1ccccc1C(=O)NC(=O)Nc1ccc(Oc2ncc(Br)cn2)c(C)c1` [Compound 9], the “repression of laryngeal squamous carcinoma cells” value in assay [4] is given as “effectively repress”. The “repression of pancreatic cancer cells” value in assay [5] was “effectively repress”.

In the case of `COC(=O)C(NC(=O)C(NC(=O)C(Cc1ccccc1)NC(=O)NC(Cc1ccccc1)NC(=O)C(C)NC(=O)C(C)N)C(C)C)C(C)C` (centres unmarked) [Compound 10], in assay [6], the “inhibitory effect on HIV-1 protease” value is “moderate inhibitory effect”.
